Laboratory results from US20210007356A1, “IMIDE DERIVATIVE AND FUNGICIDE CONTAINING SAID DERIVATIVE AS ACTIVE INGREDIENT” (HOKKO CHEMICAL INDUSTRY CO., LTD., priority 2018, published 2021).
Read-outs that look alike come from different tables or passages of the source.

Experiments:
[1] = system: barley powdery mildew fungus (Erysiphe graminis); test: Test Example 2: control effect against barley powdery mildew by foliage application; format: in vivo; settings: wettable powder diluted to 100 ppm, 10 mL per pot foliage spray on barley; inoculated day after; 7 days after inoculation
[2] = system: rice sheath blight fungus (Thanatephorus cucumeris); test: Test Example 10: control effect against rice sheath blight by water surface application (flowable formulation); settings: flowable 1,000 ppm, 1 mL dripped in paddy water, inoculated after 1 week, 7 days after inoculation
Procedure: Control value (%)=[1−(lesion height in sprayed plot/lesion height in unsprayed plot)]×100 (d)
By dripping treatment in paddy water, 1 mL of a diluted solution (1,000 ppm) of a flowable prepared according to Formulation Example-3 was applied to a 5-leaf-stage paddy rice (variety: Asahi) seedling (5 seedlings/stub, one stub/pot) grown in a pot ( 1/10000 are in size) filled with paddy soil (flooded) within a greenhouse. After growing for 1 week within a greenhouse, a culture of rice sheath blight fungus (Thanatephorus cucumeris) grown in advance on a rice straw medium was inoculated into the root of the formulation-treated paddy rice, and disease development was promoted in an artificial weather chamber at 26° C. (relative humidity=100%). Seven days after the inoculation, the rice sheath blight lesion height (height from the root) was examined, and the control value (%) was calculated according to formula (d). […] This test was performed with three replications, each consisting of one plot and one pot, per one formulation plot, and its average evaluation value of control effect was determined.

[3] = system: rice sheath blight fungus (Thanatephorus cucumeris); test: Test Example 8: control effect against rice sheath blight by box treatment (granule); settings: 5 g of granule on nursery box, paddy rice; inoculated after 3 weeks; 7 days after inoculation
[4] = system: rice blast fungus (Pyricularia grisea); format: in vivo; settings: flowable diluted to 100 ppm, 10 mL per pot foliage spray on paddy rice; inoculated day after; 7 days after inoculation
[5] = system: rice sheath blight fungus (Thanatephorus cucumeris); test: Test Example 6: control effect against rice sheath blight by box treatment (flowable formulation); settings: flowable 5,000 ppm, 50 mL irrigation of nursery box, paddy rice; inoculated after 3 weeks; 7 days after inoculation
[6] = system: rice blast fungus (Pyricularia grisea); format: in vivo; settings: flowable 5,000 ppm, 50 mL irrigation of nursery box, paddy rice; inoculated after 3 weeks; 7 days after inoculation
[7] = system: rice blast fungus (Pyricularia grisea); format: in vivo; settings: 5 g of granule on nursery box, paddy rice; inoculated after 3 weeks; 7 days after inoculation
[8] = system: rice blast fungus (Pyricularia grisea); format: in vivo; settings: flowable 1,000 ppm, 1 mL dripped in paddy water, inoculated after 1 week, 7 days after inoculation

Row | SMILES | evaluation value of control effect (from control value, lesion area percentage) [1] | evaluation value of control effect (from control value, lesion height) [2] | evaluation value of control effect (from control value, lesion height) [3] | evaluation value of control effect (from control value, number of lesions) [4] | evaluation value of control effect (from control value, lesion height) [5] | evaluation value of control effect (from control value, number of lesions) [6] | evaluation value of control effect (from control value, number of lesions) [7] | evaluation value of control effect (from control value, number of lesions) [8]
1 | Cc1nn(C)c(F)c1C(=O)N(C(=O)c1snc(Cl)c1Cl)c1ccccc1C(C)CC(C)C (centres unmarked) [1-131, 3,4-Dichloro-N-{2-(1,3-dimethylbutyl)phenyl}-N-(5-fluoro-1,3-dimethylpyrazole-4-carbonyl)isothiazole-5-carboxamide] | 4 | 5 | 5 | 4 | 5 |  |  | 
2 | Cc1nn(C)c(F)c1C(=O)N(C(=O)c1scnc1C(F)(F)F)c1ccccc1C(C)CC(C)C (centres unmarked) [1-336] | 4 |  |  | 4 |  |  |  | 
3 | Cc1nn(C)c(F)c1C(=O)N(C(=O)c1scnc1C(F)F)c1ccccc1C(C)CC(C)C (centres unmarked) [1-346] | 4 |  |  | 4 |  | 5 | 5 | 5
4 | Cc1nnsc1C(=O)N(C(=O)c1cn(C)nc1C(F)F)c1ccccc1-c1cc(F)c(F)c(F)c1 [1-368] | 4 | 5 | 5 | 4 | 5 |  |  | 
5 | Cn1cc(C(=O)N(C(=O)c2scnc2C(F)(F)F)c2ccccc2-c2cc(F)c(F)c(F)c2)c(C(F)F)n1 [1-371] |  |  |  | 4 |  |  |  | 
6 | Cc1nn(C)c(C)c1C(=O)N(C(=O)c1snc(Cl)c1Cl)c1ccccc1C(C)CC(C)C (centres unmarked) [1-377] | 4 |  |  | 4 |  | 5 | 5 | 5
7 | Cc1nn(C)c(Cl)c1C(=O)N(C(=O)c1snc(Cl)c1Cl)c1ccccc1C(C)CC(C)C (centres unmarked) [1-378] |  |  |  | 4 |  | 5 | 5 | 5
8 | CC(C)CC(C)c1ccccc1N(C(=O)c1snc(Cl)c1Cl)C(=O)c1c(C(F)F)nn(C)c1Cl (centres unmarked) [1-379] | 4 |  |  | 4 |  | 5 | 5 | 5
9 | Cc1nnsc1C(=O)N(C(=O)c1cn(C)nc1C(F)(F)F)c1ccsc1C(C)CC(C)C (centres unmarked) [5-19] | 5 |  |  | 4 |  | 5 | 5 | 5
10 | Cc1nc(C(F)F)c(C(=O)N(C(=O)c2c(C(F)F)nn(C)c2Cl)c2ccccc2C(C)CC(C)C)s1 (centres unmarked) [7-272] | 4 |  |  | 4 |  |  |  | 
11 | Cc1nc(C(F)(F)F)c(C(=O)N(C(=O)c2snc(Cl)c2Cl)c2c(Br)cc(OC(F)(F)F)cc2Br)s1 [7-279] | 4 | 5 | 5 | 4 | 5 |  |  | 
12 | Cc1nc(C(F)(F)F)c(C(=O)N(C(=O)c2sc(C)nc2C(F)(F)F)c2c(Br)cc(OC(F)(F)F)cc2Br)s1 [7-286] | 4 | 5 | 5 | 4 | 5 |  |  | 
13 | CC(C)CC(C)c1ccccc1N(C(=O)c1cc(Cl)c(Cl)s1)C(=O)c1cccnc1C(F)F (centres unmarked) [13-50] | 4 |  |  | 4 |  | 5 | 5 | 5
14 | CC(C)CC(C)c1ccccc1N(C(=O)c1cccnc1CF)C(=O)c1snc(Cl)c1Cl (centres unmarked) [13-56] | 4 |  |  | 4 |  | 5 | 5 | 5
15 | CC(C)CC(C)c1ccccc1N(C(=O)c1cccnc1C(C)F)C(=O)c1snc(Cl)c1Cl (centres unmarked) [13-57] |  |  |  | 4 |  | 5 | 5 | 5
16 | Cc1nc(C(F)F)c(C(=O)N(C(=O)c2cn(C)nc2C(F)F)c2cccc3c2C(C)CC3(C)C)s1 (centres unmarked) [25-97] | 4 | 5 | 5 | 4 | 5 |  |  | 
17 | Cc1nn(C)c(Cl)c1C(=O)N(C(=O)c1scnc1C(F)F)c1cccc2c1C(C)OC2(C)C (centres unmarked) [25-119] |  |  |  | 4 |  |  |  | 
18 | Cc1nn(C)c(Cl)c1C(=O)N(C(=O)c1scnc1C(F)(F)F)c1cccc2c1C(C)OC2(C)C (centres unmarked) [25-120] |  |  |  | 4 |  |  |  | 
19 | Cc1nc(C(F)(F)F)c(C(=O)N(C(=O)c2c(C)nn(C)c2Cl)c2cccc3c2C(C)OC3(C)C)s1 (centres unmarked) [25-122] |  |  |  | 4 |  |  |  | 
20 | Cc1nc(C(F)F)c(C(=O)N(C(=O)c2sc(C)nc2C(F)(F)F)c2cccc3c2C(C)CC3(C)C)s1 (centres unmarked) [26-73] | 4 | 5 | 5 | 4 | 5 |  |  | 
21 | Cc1nc(C(F)F)c(C(=O)N(C(=O)c2sc(C)nc2C(F)F)c2cccc3c2C(C)OC3(C)C)s1 (centres unmarked) [26-78] | 4 | 5 | 5 |  | 5 | 5 | 5 | 5
22 | Cc1nc(C(F)F)c(C(=O)N(C(=O)c2scnc2C(F)(F)F)c2cccc3c2C(C)OC3(C)C)s1 (centres unmarked) [26-82] |  | 5 | 5 | 4 | 5 |  |  | 
23 | Cc1nc(C(F)F)c(C(=O)N(C(=O)c2cc(Cl)nc(Cl)c2)c2cccc3c2C(C)CC3(C)C)s1 (centres unmarked) [26-89] | 4 | 5 | 5 | 4 | 5 |  |  | 
24 | Cc1nc(C(F)F)c(C(=O)N(C(=O)c2cc(Cl)no2)c2cccc3c2C(C)OC3(C)C)s1 (centres unmarked) [26-91] | 4 | 5 | 5 |  | 5 | 5 | 5 | 5
25 | CC1OC(C)(C)c2cccc(N(C(=O)c3cccnc3C(F)F)C(=O)c3snc(Cl)c3Cl)c21 (centres unmarked) [27-4] | 4 | 5 | 5 |  | 5 | 5 | 5 | 5
26 | Cc1nnsc1C(=O)N(C(=O)c1cccnc1C(F)F)c1cccc2c1C(C)OC2(C)C (centres unmarked) [27-16] | 4 | 5 | 5 |  | 5 | 5 | 5 | 5
